In publication PMC6856039 (Investigational New Drugs, 2019):
Like-named read-outs stand apart in the source and are kept apart here.

Tested on: T790M-positive NSCLC patients
Format: in vivo, human
Conditions: for median PFS / Best overall response: Not evaluable / Best overall response: Partial response / Best overall response: Progression disease / Best overall response: Stable disease / Disease control rate / Objective response rate: T790M-positive
Description: To assess the EGFR T790M mutation tumor status, mandatorily collected plasma from patients was processed, and isolated circulating cell-free DNA (cfDNA) was submitted for laboratory testing (Fluorescence Resonance Energy Transfer-based Preferential Formation Assay [F-PHFA] method) by central review. In some patients, collected tumor biopsies were submitted for EGFR genotyping (Therascreen® EGFR RGQ PCR kit [Qiagen, Venlo, Netherlands]).
Antitumor efficacy was based on objective tumor assessments according to the Response Evaluation Criteria in Solid Tumors criteria (version 1.1, 2009). Computed tomography scans were performed at baseline, every 6 weeks after starting administration, and at the time of discontinuation. The ORR, DCR, and PFS at each phase were assessed according to dose level and regimen. ORR was defined as the proportion of patients in which the best overall response was determined to be CR or PR and was calculated in patients with measurable lesions. DCR was defined as the proportion of patients in which the best overall response was determined to be CR, PR, or stable disease. PFS was defined as the median time from enrollment to PD or death from any cause.

SMILES: C=CC(=O)N[C@H]1CCc2c(-c3cnc4ccccc4c3)c3c(N)ncnc3n2C1 [TAS-121]
- objective response rate (ORR) (T790M-positive patients with measurable lesions, n = 86, regardless of the dosage): 28%
- objective response rate (ORR) (T790M-positive patients, 8 mg/day BID): 39%
- median PFS (4 mg/day QD, 23 patients/17 events): 165 days
- Best overall response: Not evaluable (4 mg/day QD, N = 15): 1 (6.7) n (%)
- Best overall response: Partial response (4 mg/day QD, N = 15): 4 (26.7) n (%)
- Best overall response: Progression disease (4 mg/day QD, N = 15): 7 (46.7) n (%)
- Best overall response: Stable disease (4 mg/day QD, N = 15): 3 (20.0) n (%)
- Disease control rate (4 mg/day QD, N = 15): 7 (46.7) n (%)
- Objective response rate (4 mg/day QD, N = 15): 4 (26.7) n (%)
- median PFS (8 mg/day BID, 36 patients/21 events): 253 days
- Best overall response: Not evaluable (8 mg/day BID, N = 33): 1 (3.0) n (%)
- Best overall response: Partial response (8 mg/day BID, N = 33): 13 (39.4) n (%)
- Best overall response: Progression disease (8 mg/day BID, N = 33): 8 (24.2) n (%)
- Best overall response: Stable disease (8 mg/day BID, N = 33): 11 (33.3) n (%)
- Disease control rate (8 mg/day BID, N = 33): 24 (72.7) n (%)
- Objective response rate (8 mg/day BID, N = 33): 13 (39.4) n (%)
- median PFS (8 mg/day QD, 33 patients/25 events): 125 days
- Best overall response: Not evaluable (8 mg/day QD, N = 28): 0 (0.0) n (%)
- Best overall response: Partial response (8 mg/day QD, N = 28): 6 (21.4) n (%)
- Best overall response: Progression disease (8 mg/day QD, N = 28): 11 (39.3) n (%)
- Best overall response: Stable disease (8 mg/day QD, N = 28): 11 (39.3) n (%)
- Disease control rate (8 mg/day QD, N = 28): 17 (60.7) n (%)
- Objective response rate (8 mg/day QD, N = 28): 6 (21.4) n (%)
- Best overall response: Not evaluable (10 mg/day QD, N = 7): 0 (0.0) n (%)
- Best overall response: Partial response (10 mg/day QD, N = 7): 1 (14.3) n (%)
- Best overall response: Progression disease (10 mg/day QD, N = 7): 3 (42.9) n (%)
- Best overall response: Stable disease (10 mg/day QD, N = 7): 3 (42.9) n (%)
- Disease control rate (10 mg/day QD, N = 7): 4 (57.1) n (%)
- Objective response rate (10 mg/day QD, N = 7): 1 (14.3) n (%)
- median PFS (10 mg/day QD, seven patients/three events): 401 days
- Best overall response: Not evaluable (12 mg/day BID, N = 3): 1 (33.3) n (%)
- Best overall response: Partial response (12 mg/day BID, N = 3): 0 (0.0) n (%)
- Best overall response: Progression disease (12 mg/day BID, N = 3): 1 (33.3) n (%)
- Best overall response: Stable disease (12 mg/day BID, N = 3): 1 (33.3) n (%)
- Disease control rate (12 mg/day BID, N = 3): 1 (33.3) n (%)
- Objective response rate (12 mg/day BID, N = 3): 0 (0.0) n (%)
- Best overall response: Not evaluable (12 mg/day QD, N = 1): 0 (0.0) n (%)
- Best overall response: Partial response (12 mg/day QD, N = 1): 0 (0.0) n (%)
- Best overall response: Progression disease (12 mg/day QD, N = 1): 1 (100.0) n (%)
- Best overall response: Stable disease (12 mg/day QD, N = 1): 0 (0.0) n (%)
- Disease control rate (12 mg/day QD, N = 1): 0 (0.0) n (%)
- Objective response rate (12 mg/day QD, N = 1): 0 (0.0) n (%)
- Best overall response: Not evaluable (Total, N = 87): 3 (3.4) n (%)
- Best overall response: Partial response (Total, N = 87): 24 (27.6) n (%)
- Best overall response: Progression disease (Total, N = 87): 31 (35.6) n (%)
- Best overall response: Stable disease (Total, N = 87): 29 (33.3) n (%)
- Disease control rate (Total, N = 87): 53 (60.9) n (%)
- Objective response rate (Total, N = 87): 24 (27.6) n (%)
